Experimental data reported in patent publication US20100267561A1, “HERBICIDAL PYRIDAZINONE DERIVATIVES” (priority 2007, published 2010).

Columns and labels:
Type in all cases: in vivo
[1] = system: bermudagrass (Cynodon dactylon); assay: Test E pre-/postemergence plant response; settings: scale 0 to 100
How it was run: (§1)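 In this greenhouse assay, sown seeds received preemergence treatment and young plants of 2 to 18 cm (1- to 4-leaf stage) received postemergence treatment, both with compound in a non-phytotoxic solvent and surfactant vehicle. Effects were rated visually 14 to 21 days later on a 0–100 control scale.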

[2] = system: annual bluegrass (Poa annua); assay: Test E pre-/postemergence plant response; settings: scale 0 to 100
How it was run: as §1

[3] = system: common purslane (Portulaca oleracea); assay: Test E pre-/postemergence plant response; settings: scale 0 to 100
How it was run: as §1

[4] = system: purple nutsedge (Cyperus rotundus); assay: Test E pre-/postemergence plant response; settings: scale 0 to 100
How it was run: as §1

[5] = system: itchgrass (Rottboellia cochinchinensis); assay: Test E pre-/postemergence plant response; settings: scale 0 to 100
How it was run: as §1

[6] = system: black mustard (Brassica nigra); assay: Test E pre-/postemergence plant response; settings: scale 0 to 100
How it was run: as §1

[7] = system: common groundsel (Senecio vulgaris); assay: Test E pre-/postemergence plant response; settings: scale 0 to 100
How it was run: as §1

[8] = system: naked crabgrass (Digitaria nuda); assay: Test E pre-/postemergence plant response; settings: scale 0 to 100
How it was run: as §1

[9] = system: southern (S.) sandbur (Cenchrus echinatus); assay: Test E pre-/postemergence plant response; settings: scale 0 to 100
How it was run: as §1

[10] = system: goosegrass (Eleusine indica); assay: Test E pre-/postemergence plant response; settings: scale 0 to 100
How it was run: as §1

canola (Brassica rapa) = assay: Test C pre-/postemergence plant response
How it was run: (§2)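 Greenhouse-type test under controlled conditions: soil-surface preemergence treatment of sown seed and foliar postemergence treatment of seedlings 2–18 cm tall. Each compound was in non-phytotoxic solvent with surfactant. Response was rated by eye after 15–25 days, 0 to 100, against controls.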

[11] = system: pigweed (Amaranthus retroflexus); assay: Test C pre-/postemergence plant response
How it was run: as §2

[12] = system: spring wheat (Triticum aestivum); assay: Test C pre-/postemergence plant response
How it was run: as §2

[13] = Postemergence, 8 g ai/ha, scale 0 to 100, 0 no effect, 100 complete control
[14] = Postemergence, 16 g ai/ha, scale 0 to 100, 0 no effect, 100 complete control
[15] = Postemergence, 31 g ai/ha, scale 0 to 100, 0 no effect, 100 complete control
[16] = Postemergence, 62 g ai/ha, scale 0 to 100, 0 no effect, 100 complete control
[17] = Preemergence, 8 g ai/ha, scale 0 to 100 (0 no effect, 100 complete control)
[18] = Preemergence, 31 g ai/ha, scale 0 to 100 (0 no effect, 100 complete control)
[19] = Preemergence, 62 g ai/ha, scale 0 to 100, 0 no effect, 100 complete control
[20] = Preemergence, 16 g ai/ha, scale 0 to 100 (0 no effect, 100 complete control)

## CCCc1cc(-c2ccc(Cl)cc2)nn1-c1c(O)cnn(C)c1=O [Compound 43]
[1]; 16 g ai/ha, Preemergence
  Plant response rating, Bermudagrass: 30
[1]; 31 g ai/ha, Preemergence
  Plant response rating, Bermudagrass: 70
[1]; 62 g ai/ha, Preemergence
  Plant response rating, Bermudagrass: 85
[1]; Postemergence, 8 g ai/ha
  Plant response rating, Bermudagrass: 0
[1]; Postemergence, 16 g ai/ha
  Plant response rating, Bermudagrass: 20
[1]; Postemergence, 31 g ai/ha
  Plant response rating, Bermudagrass: 20
[1]; Postemergence, 62 g ai/ha
  Plant response rating, Bermudagrass: 20
[2]; 16 g ai/ha, Preemergence
  Plant response rating, Bluegrass: 0
[2]; 31 g ai/ha, Preemergence
  Plant response rating, Bluegrass: 0
[2]; 62 g ai/ha, Preemergence
  Plant response rating, Bluegrass: 0
[2]; Postemergence, 8 g ai/ha
  Plant response rating, Bluegrass: 0
[2]; Postemergence, 16 g ai/ha
  Plant response rating, Bluegrass: 0
[2]; Postemergence, 31 g ai/ha
  Plant response rating, Bluegrass: 0
[2]; Postemergence, 62 g ai/ha
  Plant response rating, Bluegrass: 0
[3]; 16 g ai/ha, Preemergence
  Plant response rating, Purslane: 0
[3]; 31 g ai/ha, Preemergence
  Plant response rating, Purslane: 0
[3]; 62 g ai/ha, Preemergence
  Plant response rating, Purslane: 0
[3]; Postemergence, 8 g ai/ha
  Plant response rating, Purslane: 0
[3]; Postemergence, 16 g ai/ha
  Plant response rating, Purslane: 0
[3]; Postemergence, 62 g ai/ha
  Plant response rating, Purslane: 0
[4]; 16 g ai/ha, Preemergence
  Plant response rating, Nutsedge, Purple: 0
[4]; 31 g ai/ha, Preemergence
  Plant response rating, Nutsedge, Purple: 0
[4]; 62 g ai/ha, Preemergence
  Plant response rating, Nutsedge, Purple: 75
[4]; Postemergence, 8 g ai/ha
  Plant response rating, Nutsedge, Purple: 0
[4]; Postemergence, 16 g ai/ha
  Plant response rating, Nutsedge, Purple: 0
[4]; Postemergence, 31 g ai/ha
  Plant response rating, Nutsedge, Purple: 0
[4]; Postemergence, 62 g ai/ha
  Plant response rating, Nutsedge, Purple: 0
[5]; 16 g ai/ha, Preemergence
  Plant response rating, Itchgrass: 35
[5]; 31 g ai/ha, Preemergence
  Plant response rating, Itchgrass: 50
[5]; 62 g ai/ha, Preemergence
  Plant response rating, Itchgrass: 85
[5]; Postemergence, 8 g ai/ha
  Plant response rating, Itchgrass: 20
[5]; Postemergence, 31 g ai/ha
  Plant response rating, Itchgrass: 20
[5]; Postemergence, 62 g ai/ha
  Plant response rating, Itchgrass: 75
[6]; 16 g ai/ha, Preemergence
  Plant response rating, Mustard, Black: 0
[6]; 31 g ai/ha, Preemergence
  Plant response rating, Mustard, Black: 0
[6]; 62 g ai/ha, Preemergence
  Plant response rating, Mustard, Black: 0
[6]; Postemergence, 8 g ai/ha
  Plant response rating, Mustard, Black: 0
[6]; Postemergence, 16 g ai/ha
  Plant response rating, Mustard, Black: 0
[6]; Postemergence, 31 g ai/ha
  Plant response rating, Mustard, Black: 0
[6]; Postemergence, 62 g ai/ha
  Plant response rating, Mustard, Black: 0
[7]; 16 g ai/ha, Preemergence
  Plant response rating, Groundsel: 0
[7]; 31 g ai/ha, Preemergence
  Plant response rating, Groundsel: 0
[7]; 62 g ai/ha, Preemergence
  Plant response rating, Groundsel: 0
[7]; Postemergence, 8 g ai/ha
  Plant response rating, Groundsel: 0
[7]; Postemergence, 16 g ai/ha
  Plant response rating, Groundsel: 0
[7]; Postemergence, 31 g ai/ha
  Plant response rating, Groundsel: 0
[7]; Postemergence, 62 g ai/ha
  Plant response rating, Groundsel: 0
[8]; 16 g ai/ha, Preemergence
  Plant response rating, Crabgrass, Naked: 35
[8]; 31 g ai/ha, Preemergence
  Plant response rating, Crabgrass, Naked: 35
[8]; 62 g ai/ha, Preemergence
  Plant response rating, Crabgrass, Naked: 75
[8]; Postemergence, 8 g ai/ha
  Plant response rating, Crabgrass, Naked: 65
[8]; Postemergence, 16 g ai/ha
  Plant response rating, Crabgrass, Naked: 65
[8]; Postemergence, 62 g ai/ha
  Plant response rating, Crabgrass, Naked: 100
[9]; 16 g ai/ha, Preemergence
  Plant response rating, Sandbur, S.: 60
[9]; 31 g ai/ha, Preemergence
  Plant response rating, Sandbur, S.: 75
[9]; 62 g ai/ha, Preemergence
  Plant response rating, Sandbur, S.: 98
[9]; Postemergence, 8 g ai/ha
  Plant response rating, Sandbur, S.: 80
[9]; Postemergence, 16 g ai/ha
  Plant response rating, Sandbur, S.: 95
[9]; Postemergence, 31 g ai/ha
  Plant response rating, Sandbur, S.: 98
[9]; Postemergence, 62 g ai/ha
  Plant response rating, Sandbur, S.: 100
[10]; 16 g ai/ha, Preemergence
  Plant response rating, Goosegrass: 65
[10]; 31 g ai/ha, Preemergence
  Plant response rating, Goosegrass: 95
[10]; 62 g ai/ha, Preemergence
  Plant response rating, Goosegrass: 98
[10]; Postemergence, 8 g ai/ha
  Plant response rating, Goosegrass: 20
[10]; Postemergence, 16 g ai/ha
  Plant response rating, Goosegrass: 75
[10]; Postemergence, 31 g ai/ha
  Plant response rating, Goosegrass: 75
[10]; Postemergence, 62 g ai/ha
  Plant response rating, Goosegrass: 90
Canola (Brassica rapa); [13]
  Plant response rating, Canola: 0
Canola (Brassica rapa); [14]
  Plant response rating, Canola: 0
Canola (Brassica rapa); [15]
  Plant response rating, Canola: 0
Canola (Brassica rapa); [16]
  Plant response rating, Canola: 0
Canola (Brassica rapa); [17]
  Plant response rating, Canola: 0
Canola (Brassica rapa); [18]
  Plant response rating, Canola: 0
Canola (Brassica rapa); [19]
  Plant response rating, Canola: 0
[11]; [13]
  Plant response rating, Pigweed: 0
[11]; [14]
  Plant response rating, Pigweed: 0
[11]; [15]
  Plant response rating, Pigweed: 0
[11]; [16]
  Plant response rating, Pigweed: 0
[11]; [17]
  Plant response rating, Pigweed: 0
[11]; [20]
  Plant response rating, Pigweed: 0
[11]; [18]
  Plant response rating, Pigweed: 0
[11]; [19]
  Plant response rating, Pigweed: 20
[12]; [13]
  Plant response rating, Wheat, Spring: 0
[12]; [14]
  Plant response rating, Wheat, Spring: 15
[12]; [15]
  Plant response rating, Wheat, Spring: 60
[12]; [16]
  Plant response rating, Wheat, Spring: 90
[12]; [17]
  Plant response rating, Wheat, Spring: 0
[12]; [20]
  Plant response rating, Wheat, Spring: 0
[12]; [18]
  Plant response rating, Wheat, Spring: 30
[12]; [19]
  Plant response rating, Wheat, Spring: 65
